Key:
[1] = test system: A375 melanoma cells; experiment: MTT cytotoxicity test, A375; type: cell-based, human; conditions: ± S.D.
Description: (§1) The cytotoxic activity of the complexes and of the uncoordinated ligands was evaluated by the MTT test on a panel of human tumor cell lines containing examples of pancreatic (BxPC3), colorectal (HCT-15), breast (MCF-7), cervical (A431), and lung (A549) cancers as well as of melanoma (A375). For comparison purposes, the cytotoxicity of cisplatin was evaluated under the same experimental conditions.
(§2) Cisplatin was dissolved in 0.9% NaCl solution.
(§3) Human breast (MCF-7), colon (HCT-15), lung (A549) and pancreatic (BxPC3) carcinoma cell lines together with melanoma (A375) cells were obtained from American Type Culture Collection (ATCC, Rockville, MD). The human ovarian cancer cell line 2008 and its cisplatin resistant variant, C13*, were kindly provided by Prof. G. Marverti (Department of Biomedical Science of Modena University, Italy). Human cervical carcinoma (A431) cells were kindly provided by Prof. F. Zunino (Division of Experimental Oncology B, Istituto Nazionale dei Tumori, Milan, Italy). Cell lines were maintained in the logarithmic phase at 37 °C in a 5% carbon dioxide atmosphere using the following culture media containing 10% fetal calf serum (Euroclone, Milan, Italy), antibiotics (50 units/mL penicillin and 50 μg/mL streptomycin) and 2 mM L-glutamine: (i) RPMI-1640 medium (Euroclone) for 2008, C13*, MCF-7, HCT-15, A431 and BxPC3 cells, (ii) F-12 HAM’S (Sigma Chemical Co.) for A549 cells, iii) DMEM (Sigma Chemical Co.) for A375 cells.
(§4) The growth inhibitory effect toward tumor cells was evaluated by means of the MTT assay. Briefly, (3–8) × 10^3 cells/well, dependent upon the growth characteristics of the cell line, were seeded in 96-well microplates in growth medium (100 μL). After 24 h, the medium was removed and replaced with fresh medium containing the compound to be studied at the appropriate concentration. Triplicate cultures were established for each treatment. After 24, 48, or 72 h, each well was treated with 10 μL of a 5 mg/mL MTT saline solution and, after 5 h of incubation, 100 μL of a sodium dodecylsulfate (SDS) solution in 0.01 M HCl was added. After an overnight incubation, cell growth inhibition was detected by measuring the absorbance of each well at 570 nm using a Bio-Rad 680 microplate reader. The mean absorbance for each drug dose was expressed as a percentage of the control, untreated well absorbance and plotted vs drug concentration. The IC50 values, the drug concentrations that decrease the mean absorbance at 570 nm to 50% of that of untreated control wells, were calculated from the dose–response curves with the four-parameter logistic model (4PL). The final value is the mean ± S.D. of at least three independent experiments performed in triplicate.

[2] = test system: MCF-7 breast carcinoma cells; experiment: MTT cytotoxicity test, MCF-7; type: cell-based, human; conditions: ± S.D.
Description: as §1, §2, §3, §4

[3] = test system: A431 cervical carcinoma cells; experiment: MTT cytotoxicity test, A431; type: cell-based, human; conditions: ± S.D.
Description: as §1, §2, §3, §4

[4] = test system: HCT-15 colon carcinoma cells; experiment: MTT cytotoxicity test, HCT-15; type: cell-based, human; conditions: HCT-15, 72 h, MTT, ± S.D.
Description: as §1, §2, §3, §4

[5] = test system: C13* cisplatin-resistant ovarian cancer cells; experiment: MTT cytotoxicity test, cisplatin-resistant C13*; type: cell-based, human; conditions: for RF (resistance factor): IC50 resistant (C13*) / parent line (2008)
Description: The cytotoxic properties of the complexes were also evaluated in a pair of tumor cell lines suitably selected for their sensitivity and resistance to cisplatin (adenocarcinoma cells 2008/C13^*). Cross-resistance profiles were evaluated by means of the resistance factor (RF), defined as the ratio between IC50 values calculated for the resistant cells and those obtained with the sensitive ones (Table 2). The phenomenon of cisplatin resistance is multifactorial in nature.
as §2, §3, §4

[6] = test system: A549 lung carcinoma cells; experiment: cells; conditions: A549, 72 h
Description: as §1, §2, §3, §4

[7] = test system: BxPC3 pancreatic carcinoma cells; experiment: MTT cytotoxicity test, BxPC3; type: cell-based, human; conditions: BxPC3, 72 h, MTT, ± S.D.
Description: as §1, §2, §3, §4

[8] = test system: nuclear DNA of A375 cells; experiment: Nuclear DNA platination (GF-AAS); type: cell-based, human; conditions: A375, 5 μM, 24 h
Description: It is well known that the main cellular target of platinum complexes is the DNA, and platination of nuclear DNA is a critical step in triggering the death of cancer cells by platinum-based drugs. On this basis, the amount of platinum bound to nuclear DNA was also assessed in A375 cells treated with the tested Pt(IV) complexes. Cells were treated for 24 h with 5 μM of the tested complexes, the nuclear DNA was isolated and the amount of Pt in each sample was determined by means of GF-AAS analysis. The results expressed as pg Pt/ng DNA are depicted in Fig. 7. […] In particular, 1P led to a roughly 60-fold higher DNA platination level with respect to cisplatin.
A375 cells (3 × 10^6) were seeded in 10 cm Petri dishes in 10 mL of culture medium. Subsequently, cells were treated with the tested complexes (5 μM) for 24 h. The DNA was extracted and purified by a commercial spin column quantification kit (Qiagen DNeasy Blood and Tissue Kit). Only highly purified samples (A260/A230 ≅ 1.8 and […]) were included for analysis to avoid any artifacts. The samples were completely dried and re-dissolved in 200 μL of Milli-Q water (18.2 MΩ) for at least 20 min at 65 °C in a shaking thermo-mixer, mineralized and analyzed for total Pt content by GF-AAS as described above.

[9] = Log P octanol/water, shake flask method with ICP-MS; type: physicochemical; conditions: n-octanol / 0.9% NaCl water, Pt by ICP-MS
Description: Partition coefficients (logP values) for octanol/water partition were determined in order to examine whether a correlation exists between lipophilicity and accumulation into cells. The log P values obtained (Table 3) give the trend in lipophilicity as mono indole acid complex < succinate complex < acetate complex < bis indole acid complex < benzoate complex for both the IAA and the IPA series.
The logP values of the Pt(IV) compounds were determined using the shake flask method. The respective Pt(IV) complex was dissolved in 0.9% NaCl (w/v) ultrapure water (presaturated with n-octanol). The solutions were sonicated and filtered to remove undissolved Pt(IV) compounds. The initial Pt concentrations were determined by ICP-MS. Subsequently, the Pt(IV) solutions were added to an equal volume of n-octanol (presaturated with 0.9% NaCl (w/v) ultrapure water). The heterogeneous mixtures were shaken vigorously for 30 min before centrifuging at 4000 rpm for 30 min to achieve phase separation. The final Pt concentration in the aqueous phase was determined again by ICP-MS. The logarithm of the ratio of Pt concentrations in the organic and aqueous phases was calculated to determine the logP values. All experiments were done in duplicate.

[10] = test system: panel of human tumor cell lines (BxPC3, HCT-15, MCF-7, A431, A549, A375); experiment: MTT cytotoxicity, mean over panel of human tumor cell lines; type: cell-based; conditions: for IC50: mean over the six cell lines of Table 1, 72 h; for cytotoxic effect (in words): free ligands
Description: as §1, §4

[11] = test system: 2008 ovarian cancer cells; experiment: MTT cytotoxicity test, cisplatin-sensitive 2008; type: cell-based, human; conditions: 2008 cisplatin-sensitive, 72 h, ± S.D.
Description: The cytotoxic properties of the complexes were also evaluated in a pair of tumor cell lines suitably selected for their sensitivity and resistance to cisplatin (adenocarcinoma cells 2008/C13^*). Cross-resistance profiles were evaluated by means of the resistance factor (RF), defined as the ratio between IC50 values calculated for the resistant cells and those obtained with the sensitive ones (Table 2). The phenomenon of cisplatin resistance is multifactorial in nature. Nevertheless, the main molecular mechanisms involved in drug resistance in C13* cancer cells have largely been identified. Indeed, in this cell line resistance is correlated to high cellular glutathione and thioredoxin reductase levels, reduced cellular drug uptake and enhanced repair of DNA damage. […] The RF values calculated for all derivatives were six- to nine-fold lower than that of cisplatin, clearly indicating the absence of cross-resistance.
as §2
Triplicate cultures were established for each treatment.

[12] = test system: A375 cells; experiment: ROS production (CM-H2DCFDA probe); type: cell-based, human; conditions: A375, 12.5 μM, compared with antimycin positive control
Description: ROS are products of normal cell metabolism but their levels can be increased upon exposure to toxic agents or interference with the cellular redox network. […] Consequently, cellular ROS levels upon treatment with equal doses (12.5 μM) of the different platinum complexes were monitored in A375 cancer cells by using the peroxide-sensitive fluorescent probe CM-H2DCFDA (5-(and-6)-chloromethyl-2′,7′-dichlorodihydrofluorescein diacetate, acetyl ester). Antimycin, a classical inhibitor of the mitochondrial respiratory chain at the level of complex III, was used as a positive control.
Figure 8 ROS production in A375 cells. Cells were preincubated in PBS/10 mM glucose medium for 20 min at 37 °C in the presence of 10 μM CM-DCFDA and then treated with equimolar doses (12.5 μM) of indole propionic acid Pt(IV) derivatives (panel A) or indole acetic acid Pt(IV) derivatives (panel B). The fluorescence of DCF was measured.
The production of ROS was measured in A375 cells (10^4 per well) grown for 24 h in 96-well plates in DMEM medium without phenol red (Sigma Chemical Co.). Cells were then washed with PBS and loaded with 10 μM 5-(and-6)-chloromethyl-2′,7′-dichlorodihydrofluorescein diacetate, acetyl ester (CM–H2DCFDA) (Molecular Probes-Invitrogen) for 25 min in the dark. Afterwards, cells were washed with PBS and incubated with increasing concentrations of the tested complexes. The fluorescence increase was estimated with a plate reader (Fluoroskan Ascent FL, Labsystem, Finland) at 485 (excitation) and 527 nm (emission). Antimycin (3 μM, Sigma Chemical Co.), a potent inhibitor of Complex III in the electron transport chain, was used as positive control.

[13] = Homo sapiens, A-375, A375, 72 h
[14] = Homo sapiens, MCF7, MCF-7, 72 h
[15] = Homo sapiens, A-431, A431, 72 h

| SMILES | IC50 ([1]; A375, 72 h) | IC50 ([2]; MCF-7, 72 h) | IC50 ([3]; A431, 72 h) | IC50 [4] | IC50 ([5]; C13* cisplatin-resistant, 72 h, MTT, ± S.D.) | RF (resistance factor) [5] | IC50 ([6]; MTT, ± S.D.) | IC50 [7] | DNA platination (in words) [8] | Log P (octanol/water) [9] | IC50 [10] | IC50 [11] | IC50 [1, 13] | IC50 [2, 14] | IC50 [3, 15] | IC50 ([4]; Homo sapiens) | IC50 ([6]; Homo sapiens) | IC50 ([7]; Homo sapiens, BXPC-3) | ROS production (in words) [12] | cytotoxic effect (in words) [10] |
| --- | --- | --- | --- | --- | --- | --- | --- | --- | --- | --- | --- | --- | --- | --- | --- | --- | --- | --- | --- | --- |
| CC(=O)[O][Pt]([NH2])([NH2])([Cl])([Cl])[O]C(=O)CCc1c[nH]c2ccccc12 [Complex 5P] | 3.15 ± 0.02 µM | 21.01 ± 0.06 µM | 5.35 ± 2.11 µM | 14.03 ± 0.14 µM | 21.9 ± 2.48 µM | 1.2 | 3.62 ± 0.18 µM | 19.5 ± 0.68 µM | least effective | −0.080 ± 0.04 | 11.1 µM | 18 ± 1.33 µM |  |  |  |  |  |  |  |  |
| O=C(O)Cc1c[nH]c2ccccc12 [IAA, indole-3-acetic acid, reference compound] |  |  |  |  |  |  |  |  |  |  |  |  | > 50 µM | > 50 µM | > 50 µM | > 50 µM | > 50 µM | > 50 µM | no effect on cellular basal ROS levels | did not elicit any significant cytotoxic effect |
| O=C(O)CCc1c[nH]c2ccccc12 [IPA, indole-3-propionic acid, reference compound] |  |  |  |  |  |  |  |  |  |  |  |  | > 50 µM | > 50 µM | > 50 µM | > 50 µM | > 50 µM | > 50 µM | no effect on cellular basal ROS levels | did not elicit any significant cytotoxic effect |
| N.N.[Cl][Pt][Cl] [cisplatin] | 2.06 ± 1.01 µM | 7.6 ± 2.96 µM | 1.96 ± 0.84 µM | 15.5 ± 2.48 µM |  | 10.5 | 12.6 ± 0.81 µM | 10.2 ± 1.65 µM |  |  | 8.33 µM | 2.26 ± 1.06 µM |  |  |  |  |  |  |  |  |

From publication PMC4941645, “Oxidative Stress Induced by Pt(IV) Pro-drugs Based on the Cisplatin Scaffold and Indole Carboxylic Acids in Axial Position” (Scientific Reports, 2016)
